The target in the experiment is LARP1 DM15 region (Homo sapiens, UniProt Q6PKG0). Kind of experiment: binding of LARP1 DM15 region to capped RNA motifs. The conditions noted are these: relative to endogenous (human) m7GpppC motif; FIGS. 1B & C.

Each structure is given as a SMILES string.

As to `Cn1c[n+]([C@@H]2O[C@H](COP(=O)(O)OP(=O)(O)OP(=O)(O)OC[C@H]3O[C@@H](n4cnc5c(N)ncnc54)[C@H](O)[C@@H]3O)[C@@H](O)[C@H]2O)c2nc(N)[nH]c(=O)c21` [m^7GpppA], the “interaction with DM15 region compared with m7GpppC-initiated mRNA targets” value is given as “even tighter interaction”.

Values taken from patent US20240139191A1, “SMALL MOLECULES AS LARP1 LIGANDS” (priority 2020, published 2024).
